{
  "source": "patent US6737383B1",
  "about": "“Herbicidal oxadiazolidines” (priority 1999, dated 2004)",
  "key": {"[1]": {"tested_on": "wild mustard", "experiment": "Test E wild mustard", "type": "in vivo, Sinapis arvensis", "conditions": "Preemergence"}, "[2]": {"tested_on": "ivyleaf speedwell", "experiment": "Test E postemergence ivyleaf speedwell", "type": "in vivo, Veronica hederaefolia", "procedure": "(§1) Compounds evaluated in this test were formulated in a non-phytotoxic solvent mixture which included a surfactant and applied to plants that were in the 1- to 4-leaf stage (postemergence application). A mixture of sandy loam soil and greenhouse potting mix in a 60:40 ratio was used for the postemergence test.\n(§2) Plantings of these crops and weed species were adjusted to produce plants of appropriate size for the postemergence test. All plant species were grown using normal greenhouse practices. Crop and weed species include annual bluegrass (Poa annua), blackgrass (Alopecurus myosuroides), black nightshade (Solanum nigra), chickweed (Stellaria media), common poppy (Papaver rhoeas), deadnettle (Lamium amplexicaule), downy brome (Bromus tectorum), field violet (Viola arvensis), galium (Galium aparine), green foxtail (Setaria viridis), Italian ryegrass (Lolium multiflorum), jointed goatgrass (Aegilops cylindrica), kochia (Kochia scoparia), lambsquarters (Chenopodium album), littleseed canarygrass (Phalaris minor), rape (Brassica napus), redroot pigweed (Amaranthus retroflexus), Russian thistle (Salsola kali), scentless chamomile (Matricaria inodora), spring barley (Hordeum vulgare), sugar beet (Beta vulgaris), sunflower (Helianthus annuus), ivyleaf speedwell (Veronica hederaefolia), spring wheat (Triticum aestivum), winter wheat (Triticum aestivum), wild buckwheat (Polygonum convolvulus), wild mustard (Sinapis arvensis), wild oat (Avena fatua), windgrass (Apera spica-venti) and winter barley (Hordeum vulgare).\n(§3) Treated plants and untreated controls were maintained in a greenhouse for approximately 21 to 28 days, after which all treated plants were compared to untreated controls and visually evaluated. […] A dash response (-) means no test result."}, "[3]": {"tested_on": "blackgrass", "experiment": "Test E blackgrass", "type": "in vivo, Alopecurus myosuroides", "conditions": "Postemergence", "procedure": "as §1, §2, §3"}, "[4]": {"tested_on": "kochia", "experiment": "Test E kochia", "type": "in vivo, Kochia scoparia", "conditions": "Preemergence"}, "[5]": {"tested_on": "Italian ryegrass", "experiment": "Test E Italian ryegrass", "type": "in vivo, Lolium multiflorum", "conditions": "Postemergence", "procedure": "as §1, §2, §3"}, "[6]": {"tested_on": "annual bluegrass", "experiment": "Test E annual bluegrass", "type": "in vivo, Poa annua", "conditions": "Postemergence", "procedure": "as §1, §2, §3"}, "[7]": {"tested_on": "spring wheat", "experiment": "Test E spring wheat", "type": "in vivo, Triticum aestivum", "conditions": "Preemergence"}, "[8]": {"tested_on": "spring barley", "experiment": "Test E spring barley", "type": "in vivo, Hordeum vulgare", "conditions": "Postemergence", "procedure,_shortened": "(§4)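 For postemergence, plants at the 1- to 4-leaf stage, in a 60:40 mix of sandy loam and potting mix, treated with compound formulated in a surfactant-containing non-phytotoxic solvent. Visual assessment versus untreated controls followed roughly 21–28 days in the greenhouse.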"}, "[9]": {"tested_on": "winter barley", "experiment": "Test E winter barley", "type": "in vivo, Hordeum vulgare", "conditions": "Postemergence", "procedure,_shortened": "as §4"}, "[10]": {"tested_on": "annual bluegrass", "experiment": "Test E annual bluegrass", "type": "in vivo, Poa annua", "conditions": "Preemergence"}, "[11]": {"tested_on": "redroot pigweed", "experiment": "Test E redroot pigweed", "type": "in vivo, Amaranthus retroflexus", "conditions": "Preemergence"}, "[12]": {"tested_on": "wild buckwheat", "experiment": "Test E wild buckwheat", "type": "in vivo, Polygonum convolvulus", "conditions": "Postemergence", "procedure,_shortened": "as §4"}, "[13]": {"tested_on": "galium", "experiment": "Test E galium", "type": "in vivo, Galium aparine", "conditions": "Postemergence", "procedure,_shortened": "as §4"}, "[14]": {"tested_on": "sunflower", "experiment": "Test E sunflower", "type": "in vivo, Helianthus annuus", "conditions": "Preemergence"}, "[15]": {"tested_on": "spring barley", "experiment": "Test E spring barley", "type": "in vivo, Hordeum vulgare", "conditions": "Preemergence"}, "[16]": {"tested_on": "black nightshade", "experiment": "Test E black nightshade", "type": "in vivo, Solanum nigra", "conditions": "Postemergence", "procedure": "as §1, §2, §3"}, "[17]": {"conditions": "Rate 125 g/ha, 0 to 100 scale (0 no effect, 100 complete control)"}, "[18]": {"conditions": "Rate 500 g/ha, 0 to 100 scale where 0 is no effect and 100 is complete control"}, "[19]": {"conditions": "Rate 250 g/ha, 0 to 100 scale (0 no effect, 100 complete control)"}, "[20]": {"conditions": "Rate 500 g/ha, 0 to 100 scale, 0 no effect, 100 complete control"}},
  "data": [
    {"smiles": "CC(C)N(C(=O)n1oc(=O)n(C(C)C)c1=O)c1ccc(F)cc1F", "note": "[Compound 109]", "values": [
      {"measurement": "Plant response rating, Wild mustard", "setting": "[1]; [17]", "value": 30},
      {"measurement": "Plant response rating, Wild mustard", "setting": "[1]; Rate 250 g/ha, 0 to 100 scale", "value": 85},
      {"measurement": "Plant response rating, Wild mustard", "setting": "[1]; [18]", "value": 80},
      {"measurement": "Plant response rating, Veronica hedera", "setting": "[2]; Rate 125 g/ha, 0 to 100 scale", "value": 20},
      {"measurement": "Plant response rating, Veronica hedera", "setting": "[2]; [19]", "value": 50},
      {"measurement": "Plant response rating, Veronica hedera", "setting": "[2]; [20]", "value": 70},
      {"measurement": "Plant response rating, Blackgrass", "setting": "[3]; Rate 125 g/ha, 0 to 100 scale", "value": 30},
      {"measurement": "Plant response rating, Blackgrass", "setting": "[3]; [19]", "value": 10},
      {"measurement": "Plant response rating, Blackgrass", "setting": "[3]; [20]", "value": 70},
      {"measurement": "Plant response rating, Kochia", "setting": "[4]; [17]", "value": 0},
      {"measurement": "Plant response rating, Kochia", "setting": "[4]; Rate 250 g/ha, 0 to 100 scale", "value": 50},
      {"measurement": "Plant response rating, Kochia", "setting": "[4]; [18]", "value": 100},
      {"measurement": "Plant response rating, I. Ryegrass", "setting": "[5]; Rate 125 g/ha, 0 to 100 scale", "value": 10},
      {"measurement": "Plant response rating, I. Ryegrass", "setting": "[5]; [19]", "value": 10},
      {"measurement": "Plant response rating, I. Ryegrass", "setting": "[5]; [20]", "value": 65},
      {"measurement": "Plant response rating, Annual bluegras", "setting": "[6]; Rate 125 g/ha, 0 to 100 scale", "value": 10},
      {"measurement": "Plant response rating, Annual bluegras", "setting": "[6]; [19]", "value": 10},
      {"measurement": "Plant response rating, Annual bluegras", "setting": "[6]; [20]", "value": 50},
      {"measurement": "Plant response rating, Spring Wheat", "setting": "[7]; [17]", "value": 20},
      {"measurement": "Plant response rating, Spring Wheat", "setting": "[7]; Rate 250 g/ha, 0 to 100 scale", "value": 40},
      {"measurement": "Plant response rating, Spring Wheat", "setting": "[7]; [18]", "value": 50},
      {"measurement": "Plant response rating, Spring Barley", "setting": "[8]; Rate 125 g/ha, 0 to 100 scale", "value": 30},
      {"measurement": "Plant response rating, Spring Barley", "setting": "[8]; [19]", "value": 20},
      {"measurement": "Plant response rating, Spring Barley", "setting": "[8]; [20]", "value": 20},
      {"measurement": "Plant response rating, Barley (winter)", "setting": "[9]; Rate 125 g/ha, 0 to 100 scale", "value": 40},
      {"measurement": "Plant response rating, Barley (winter)", "setting": "[9]; [19]", "value": 20},
      {"measurement": "Plant response rating, Barley (winter)", "setting": "[9]; [20]", "value": 10},
      {"measurement": "Plant response rating, Annual bluegras", "setting": "[10]; [17]", "value": 40},
      {"measurement": "Plant response rating, Annual bluegras", "setting": "[10]; Rate 250 g/ha, 0 to 100 scale", "value": 90},
      {"measurement": "Plant response rating, Annual bluegras", "setting": "[10]; [18]", "value": 75},
      {"measurement": "Plant response rating, Redroot pigweed", "setting": "[11]; [17]", "value": 70},
      {"measurement": "Plant response rating, Redroot pigweed", "setting": "[11]; Rate 250 g/ha, 0 to 100 scale", "value": 100},
      {"measurement": "Plant response rating, Redroot pigweed", "setting": "[11]; [18]", "value": 100},
      {"measurement": "Plant response rating, Wild buckwheat", "setting": "[12]; Rate 125 g/ha, 0 to 100 scale", "value": 10},
      {"measurement": "Plant response rating, Wild buckwheat", "setting": "[12]; [19]", "value": 20},
      {"measurement": "Plant response rating, Wild buckwheat", "setting": "[12]; [20]", "value": 10},
      {"measurement": "Plant response rating, Galium", "setting": "[13]; Rate 125 g/ha, 0 to 100 scale", "value": 50},
      {"measurement": "Plant response rating, Galium", "setting": "[13]; [19]", "value": 30},
      {"measurement": "Plant response rating, Galium", "setting": "[13]; [20]", "value": 50},
      {"measurement": "Plant response rating, Sunflower", "setting": "[14]; [17]", "value": 0},
      {"measurement": "Plant response rating, Sunflower", "setting": "[14]; Rate 250 g/ha, 0 to 100 scale", "value": 10},
      {"measurement": "Plant response rating, Sunflower", "setting": "[14]; [18]", "value": 5},
      {"measurement": "Plant response rating, Spring Barley", "setting": "[15]; [17]", "value": 5},
      {"measurement": "Plant response rating, Spring Barley", "setting": "[15]; Rate 250 g/ha, 0 to 100 scale", "value": 20},
      {"measurement": "Plant response rating, Spring Barley", "setting": "[15]; [18]", "value": 50},
      {"measurement": "Plant response rating, Blk nightshade", "setting": "[16]; Rate 125 g/ha, 0 to 100 scale", "value": 40},
      {"measurement": "Plant response rating, Blk nightshade", "setting": "[16]; [19]", "value": 40},
      {"measurement": "Plant response rating, Blk nightshade", "setting": "[16]; [20]", "value": 60}
    ]}
  ]
}
